Legend:
[1] = Leaching assay (modified AWPA E11-97); format: physicochemical; details: 1000 ppm, 3* (30% DCOIT in xylene); no polymer, no added surfactant
Description: In order to provide long term protection, the preservative needs to “fix” in the wood and not deplete too rapidly by volatilization or by leaching when the wood gets wet. It might be expected that enhanced penetration or enhanced movement of the preservative deep into the wood during treatment might also lead to reduced fixation of the organic wood preservative. However, it was discovered that the polymers used to provide enhanced penetration also effectively fix the organic biocide in the wood. Two different measures of fixation were used, a dislodgeable residue assay and a very aggressive leaching assay. The dislodgeable residue assay measures how much preservative can be removed or dislodged from the surface of the wood. This is a good assay to determine how much preservative is available or has migrated to the surface of the wood. […] All of the polymers provided exceptional control of dislodgeable residues except for one water soluble polymer that probably redissolves under the assay conditions. Another measure of fixation is resistance to leaching. A very aggressive leaching assay, the AWPA E11-97 assay was used. DCOIT is considered a low leaching organic biocide as is seen by the cumulative % of DCOIT leached in Table 6 with the xylene formulation which doesn't contain any added surfactant. Nonionic surfactants can facilitate the leaching of organic preservatives. […]

[2] = Partitioning of DCOIT between polymer and supernatant of the treatment solution (centrifugation, HPLC); format: physicochemical; details: treatment solution (1500 ppm DCOIT) centrifuged at 100,000 RPM for 20 minutes
Protocol: An aliquot of well-mixed sample was weighed into a one-ounce screw cap vial. Into the vial was pipetted 20 mL of methanol. The contents were sonicated for one hour in an ultrasonic bath. The sample was filtered through a 0.2 μm filter into an auto-sampler for analysis. The sample preparation was analyzed using a reverse phase HPLC procedure with UV detection according to the wood analysis method below.
A 3 g sample of as is treatment solution was centrifuged at 10,000 RPM for 10 minutes to precipitate any gelled polymer or other particulates. No solid precipitated. The treatment solution sample was further centrifuged at 100,000 RPM for 20 minutes to precipitated the polymer. The precipitated polymer plug and the clear supernatant were analyzed for DCOIT by HPLC.

CCCCCCCCn1sc(Cl)c(Cl)c1=O [DCOIT, 4,5-dichloro-2-n-octyl-4-isothiazolin-3-one]
% Biocide Leached (cumulative) [1]: 4.4%
DCOIT in polymer plug [2]: 38,000 ppm
DCOIT in supernatant [2]: 34 ppm

From patent US7740906B2, “Wood preservatives” (Rohm and Haas Company, priority 2005, dated 2010)
